Assay [1] has as its system ARE reporter gene (MMTV hormone response element). The assay is described as follows: ARE (MMTV hormone response element) luciferase reporter in C2C12 and C2C12.AR cells. It counts as cell-based. The text has this:
The reporter genes pMAF3.1, pMAF2.4, pMAF948, pMAF400, and pMAF400-241 express firefly luciferase under the control of promoter regions of the human MAFbx gene and are described in Example 1. The rARC562G vector, encoding rat AR with a C562->G mutation in the first zinc binding module that disrupts binding of AR to DNA was described by Palvimo et al. (Mol Endocrinol 7: 1399-1407, 1993) pAR.4RKM (expressing AR with 4 R/K->M mutations in the nuclear localization sequence that is unable to enter the nucleus) and pAR.ABC (lacking the ligand binding domain) were described by Zhou et al. (J Biol Chem 269: 13115-13123, 1994). The pBabe.puro retroviral backbone described by Morgenstern and Land (Nucleic Acids Res 18: 3587-3596, 1990) was modified by introduction of a Not1 site. […]
Cells were seeded into wells of 24-well plates (5×10^5 cells/well) then maintained overnight in DMEM with 10% CDS-FBS. […] Cells were maintained for an additional 24 hours, at which time both firefly and renilla luciferase activity were determined using the Dual Luciferase Assay (Promega, Madison, Wis.) and a Berthold 96-well plate luminometer. […]
To determine whether C2C12 cells expressed AR, total RNA from these cells was extracted and analyzed by real-time PCR and compared to levels of AR mRNA in gastrocnemius muscle from male mice. […]

The next assay deals with MAFbx mRNA. The assay is described as follows: MAFbx mRNA half-life after actinomycin in C2C12.AR cells. It counts as cell-based, mouse. How it is done: (A) Rats were administered test agents as indicated in the figure for 7-days, at which time animals were sacrificed and MAFbx expression was determined in gastrocnemius muscles by qPCR. Data are mean values±SEM for at least 8 animals. * p<0.05 vs vehicle, t-test. (B) AR6 cells were seeded into 6-well plates and incubated overnight in growth medium. Medium was replaced with DMEM containing 2% horse serum followed by incubation for an additional 48 hours. Hormones or vehicle (EtOH) were added to the medium and cells were incubated overnight, at which time MAFbx mRNA levels were determined by qPCR and expressed as fold-induction versus levels in cells incubated with EtOH. Data are mean values±SEM for three determinations each performed in triplicate. * p<0.05 vs. EtOH (ANOVA). (C) Effect of testosterone on MAFbx mRNA half-life. C2C12.AR cells were incubated overnight in growth medium supplemented with testosterone or vehicle (EtOH). […] Levels of MAFbx mRNA are expressed as a percentage of those at time zero. […]
RNA was quantified by absorbance at 260 nm. […] Relative changes in expression were determined using the 2^−ΔΔCt method. Taqman Assay on Demand probes (Applied Biosystems) were used for all assays except rat 18S RNA, which was quantified using the following Assay on Demand Probes: Forward: […] […]

With `C[C@]12CC[C@H]3[C@@H](CCC4=CC(=O)CC[C@@]43C)[C@@H]1CC[C@@H]2O` [testosterone], the “luciferase expression by ARE-Luc reporter” value in assay [1] (C2C12.AR cells (human AR)) is recorded as “marked increase”. In addition, in assay [1] (wild-type C2C12 cells, MMTV hormone response element reporter), the “increase in luciferase expression over baseline” value is on record as “about 2 fold”. The “half-life of MAFbx mRNA versus absence of testosterone” value with MAFbx mRNA is listed as “not significantly different”.
